Peptide text beside a SMILES is read from it. * marks the point of attachment. Tos = Cc1ccc(S(=O)(=O)*)cc1; CH2Cl = ClC*

One data set relates to Factor Xa. The data set is described as follows: Factor Xa activity test. In kind it is biochemical. The following applies: 100 μM; for Potency score in Factor Xa activity test: most potent (1) to least potent (5); for Fxa: without conjugate 0.11.
For another data set, the system named is thrombin. The data set is described as follows: Thrombin time test. The following applies: for TT: without conjugate 13.4; for Potency score in TT test: most potent (1) to least potent (5). In kind it is biochemical.
The next data set concerns the target Protein C (Homo sapiens, UniProt P04070). The data set is described as follows: Protein C activity test. Format: biochemical. The following applies: for aPC: without conjugate 109; for Potency score in Protein C activity test: most potent (1) to least potent (5).
A further data set can be described thus: in vivo. The following applies: ip, 2 micromolar, in 100 ul.
Data set [1] relates to rat Glioblastoma multiforme (GBM) tumor. The data set is described as follows: Tumor size, edema and survival in GBM animal model. The following applies: for change in edema surrounding the tumor: 1 μl/h for 7 days; for change in tumor size: 1 μl/h for 7 days intratumoral, MRI, grade 1 and 2 tumors; for rats with severe initial tumors surviving to the second MRI: none of 3 in controls. In kind it is in vivo. As for the experimental part: Cells (0.5×10^6 cells) from a highly malignant cell line of rat Glioblastoma multiforme (GBM) were injected by stereotactic methods into the parietal cortex of rats. Five (5) days later the brain of these rats were examined by MM and the tumors scored on a scale of 1-3 (1-small size tumor, 2-middle size tumor, 3-large size tumor) and for ventricular localization of the tumor. A catheter was placed in the brain tumor and attached to an osmotic pump (Alzet) releasing 1 μl/h for 7 days of one of the following three (3) treatments: saline (n=13), 6AA 2 μM (n=14) and 6AA 20 μM (n=14).
In order to account for the unequal distribution of initial tumor size, tumor and edema analyses were performed on rats with grade 1 and 2 tumors in the initial Mill (n=7, 6 and 5 for the saline, low and high treatment groups, respectively).
Survival was registered daily (FIG. 21).

In a further data set the test system is blood coagulation (aPTT). The data set is described as follows: Activated partial thromboplastin time test. Format: biochemical. The following applies: for aPTT: without conjugate 30.5; for Potency score in aPTT test: most potent (1) to least potent (5).
Data set [2] deals with blood coagulation (prothrombin time). The data set is described as follows: Prothrombin time test. The following applies: for PT: without conjugate 11.5; for Potency score in PT test: most potent (1) to least potent (5). Format: biochemical.
The subject of data set [3] is CNS-1 glioma cells. The data set is described as follows: Proliferation (XTT) of CNS-1 glioma cells. Format: cell-based, rat. The following applies: CNS-1 cells. As for the experimental part: Several peptide moieties (Table 1) according to the present invention were synthesized. Proliferation was measured, by means of XTT, in C6 and CNS-1 glioma cell-lines (FIGS. 8A and 8B, respectively). In C6 cells, proliferation was measured before (black bar) and after cells were treated with the PAR-1 antagonist SCH79797 at various doses ranging from 10 nM to 10 μM (grey bars; FIG. 8A).
In another set of experiments, CNS-1 glioma cell-line was treated with increased doses of TLCK (125 nM to 14 mM), for 48 hours (FIG. 9; grey bars). Proliferation was measured by means of XTT in comparison to non-treated cells (control; black bar).
Initially, CNS-1 glioma cells were treated with increased concentrations of two peptide conjugates: a short conjugate of the formula tosyl-DPR-CK (comprising 3 amino acids, 3AA) or a long conjugate of the formula tosyl-NATLDPR-CK (comprising 7 amino acids, 7AA; SEQ ID NO: 4) in concentrations of 100 pM, 1 nM and 10 nM, for 48 hours (FIG. 10). FIG. 10 provides the results of an XTT assay used for assessing cell proliferation.
The effect of the peptide conjugate alone, or in combination with PAR-1 antagonist, SCH79797, on cell proliferation was determined in comparison to untreated cells or cells treated with PAR-1 antagonist (FIG. 13).

The subject of data set [4] is CNS-1 glioma cells. As to the method:
The thrombin-like activity of CNS-1 cells was initially measured in control cells and in cells treated with (i) the short peptide conjugate (tosyl-DPR-CK, corresponding to a conjugate that includes the peptide termed 3AA) or (ii) the long conjugate (tosyl-NATLDPR-CK, corresponding to a conjugate that includes the peptide termed 7AA (SEQ ID No. 4)) at high ([…]) and low (100 nM) concentrations (FIG. 16).

The subject of data set [5] is EAN rats (experimental autoimmune neuritis). The data set is described as follows: Electrophysiological tests in EAN rats treated with thrombin inhibitors. Format: in vivo, rat. As to the method:
(§1) Electrophysiological tests of the sciatic nerves were performed on day 32 PI (post-immunization/induction) in EAN model (FIGS. 3A-C) and 8 weeks after STZ induction (FIG. 4A-C). Rats were anesthetized with Phenobarbital (IP, 24 mg/kg). Two pairs of monopolar needle electrodes were used to stimulate the tail nerves. Stimulating cathodes were inserted to a depth of 4-5 mm at the base of the tail and 4 cm distally. An anode at each location was inserted into the skin (4-5 mm depth) 1 cm proximal to the cathode. A ground electrode was placed between the distal stimulating electrode and the active recording electrode. Electromyography (EMG) recordings of responses of the tail muscles to proximal and distal stimuli, made by a pair of ring electrodes coated with electrode jelly and placed 1 cm distally to the distal stimulating electrode, were collected. The tail skin was wiped with alcohol prior to placing the electrodes. […] Both proximal and distal latencies were measured using time intervals from the stimulus artifact to the first deflection from baseline. To calculate the motor nerve conduction velocity (MNCV), the distance between stimulating cathodes was divided by the latency difference. Amplitudes of the compound muscle action potential (CMAP) from both proximal and distal stimulations were measured from the negative to the positive peaks. The reduction of the proximal CMAP compared with that of the distal CMAP was calculated by the equation: [(distal CMAP-proximal CMAP)/distalCMAP×100] and was defined as the R ratio. Temperature differences were minimized by conducting the study as soon as the anesthesia had taken effect and by warming the tail with a heating lamp.
(§2) FIGS. 3 and 4 each include 3 graphs summarizing the results from electrophysiological tests of treated rats, as follows: distal latency (3A, 4A) referring to the time, in milliseconds, between distal stimulation to recording; conduction velocity (3B, 4B) referring to the distance over time, in meters/seconds; and amplitude (3C, 4C) referring to the size of the response as measured in millivolts.

The subject of data set [6] is STZ-induced diabetic rats. The data set is described as follows: Electrophysiological tests in STZ-induced diabetic rats treated with thrombin inhibitors. In kind it is in vivo, rat. As for the experimental part:
as §1, §2

Protein C, sequence (P04070 212-461 limits assumed): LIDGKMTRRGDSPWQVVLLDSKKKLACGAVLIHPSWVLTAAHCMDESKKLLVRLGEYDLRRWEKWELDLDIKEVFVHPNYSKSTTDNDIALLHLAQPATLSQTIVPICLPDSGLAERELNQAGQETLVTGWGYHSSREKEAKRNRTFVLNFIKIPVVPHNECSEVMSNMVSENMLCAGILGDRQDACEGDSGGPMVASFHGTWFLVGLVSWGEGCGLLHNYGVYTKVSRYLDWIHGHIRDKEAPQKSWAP
Protein C, sequence (P04070 43-197 partner limits assumed): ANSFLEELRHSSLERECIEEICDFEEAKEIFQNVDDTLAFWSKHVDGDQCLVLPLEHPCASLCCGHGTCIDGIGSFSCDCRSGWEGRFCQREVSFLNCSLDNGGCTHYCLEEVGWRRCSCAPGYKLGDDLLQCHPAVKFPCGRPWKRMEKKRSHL
Description for in vivo: The concentrations of the peptide conjugates in the plasma of animals treated therewith was evaluated by a unique method that was based on the ability of the peptide conjugates to inhibit thrombin activity. […] The essay initiated by obtaining blood samples from animals which received the peptide conjugates (100 microliter containing 2 micromolar, i.p.). The blood samples, after being maintained in citrate buffered sample tubes, were subjected to centrifugation for plasma separation. Samples were then filtered through a membrane with a 10 kD molecular weight cutoff which excluded all blood coagulation factors (by addition of calcium to neutralize the anticoagulation effect of the citrate buffer). Coagulation factor-free plasma samples were then applied to the thrombin activity assay.
The resulting thrombin activities in each plasma sample either diluted (×10) or as is were given in arbitrary units (FIGS. 18-18D, diagonal shading and dotted bars, respectively). However, the actual concentration were deduced by comparing the activities to calibrated activities generated with known concentrations of the conjugate peptides. The calibration data included the following thrombin activities: activity in a sample of thrombin in the absence of plasma and conjugates (black bars, FIGS. 18A-18D); and activity in four samples of thrombin and known concentrations of the peptide conjugates (10 nM, 100 nM, 1 micromolar and 10 micromolar; bars 2nd to 5th from right in FIGS. 18A-18D).

With `Cc1ccc(S(=O)(=O)N[C@@H](C)C(=O)N[C@H](C(=O)N[C@@H](CC(C)C)C(=O)N[C@@H](CC(=O)O)C(=O)N2CCC[C@H]2C(=O)N[C@@H](CCCNC(=N)N)C(=O)CCl)[C@@H](C)O)cc1` [6AA, tosyl-ATLDPR-CK] (Tos-ATLDPR-CH2Cl), in the data set on Factor Xa, the “Potency score in Factor Xa activity test” value is recorded as 3. In addition, the Fxa with Factor Xa is 0.36. Also, the TT with thrombin (10 nM) was 13.9 s; with thrombin (1 μM), 18.5 s; in the data set with thrombin (100 μM), more than 80 s. The “Potency score in TT test” value in the data set on thrombin (1 μM) amounted to 3. In addition, the aPC at Protein C (1 μM) is listed as 108; at Protein C (100 μM) it was 11. Moreover, on Protein C (100 μM), the “Potency score in Protein C activity test” value was determined as 2. The level at time molar in “in vivo” was less than 10 nM. In addition, the “change in edema surrounding the tumor” value in data set [1] (2 μM) and in data set [1] (20 μM) was “reduction in the edema” in each case. Besides, the “change in tumor size” value is given as “A similar trend was observed” in data set [1] (2 μM) and “reduced tumor size to half of the original size” in data set [1] (20 μM, p=0.030). In addition, the “rats with severe initial tumors surviving to the second MRI” value in [1] (2 μM) was 1 out of 3; in [1] (20 μM), “all 3”. For the same compound, the survival entry in [1] (20 μM, registered daily) is reported as “clear trend to increased survival”. In addition, the aPTT came to 30 s with blood coagulation (aPTT) (10 nM), 30.6 s in the data set on blood coagulation (aPTT) (1 μM) and 67.6 s in the data set on blood coagulation (aPTT) (100 μM). Besides, the “Potency score in aPTT test” value in the data set on blood coagulation (aPTT) (100 μM) turned out to be 3. Moreover, the PT in [2] (10 nM) came out at 11.5 s; in [2] (1 μM), 11.4 s; in [2] (100 μM), 16.5 s. For the same compound, the “Potency score in PT test” value in data set [2] (100 μM) is recorded as 3. For the same compound, in the data set with CNS-1 glioma cells [3] (48 hours, 10 μM, p<0.05), the “inhibition of cell proliferation” value is listed as “Significant inhibition”. For the same compound, in the data set with CNS-1 glioma cells [3] (72 hours, all tested concentrations, p<0.05), the “proliferation compared to controls” value was “significantly lower proliferation”.
`Cc1ccc(S(=O)(=O)N[C@@H](CC(N)=O)C(=O)N[C@@H](C)C(=O)N[C@H](C(=O)N[C@@H](CC(C)C)C(=O)N[C@@H](CC(=O)O)C(=O)N2CCC[C@H]2C(=O)N[C@@H](CCCNC(=N)N)C(=O)CCl)[C@@H](C)O)cc1` [7AA, tosyl-NATLDPR-CK] (Tos-NATLDPR-CH2Cl): the “Potency score in Factor Xa activity test” value in the data set with Factor Xa was found to be 2. For the same compound, the Fxa with Factor Xa was determined as 0.43. Besides, the TT with thrombin (10 nM) is 13.5 s; in the data set on thrombin (1 μM) it was 24.1 s; in the data set on thrombin (100 μM) it was more than 80 s. Besides, the “Potency score in TT test” value in the data set on thrombin (1 μM) was 2. Moreover, the aPC on Protein C (1 μM) was 110; at Protein C (100 μM) it was 25. The “Potency score in Protein C activity test” value at Protein C (100 μM) is given as 4. The compound also returned a level at time molar in the data set “in vivo” of approximately 10 nM. In the data set on CNS-1 glioma cells [4], the IC50 was found to be 0.01 nM. The aPTT with blood coagulation (aPTT) (10 nM) amounted to 29.9 s; with blood coagulation (aPTT) (1 μM), 30.7 s; in the data set on blood coagulation (aPTT) (100 μM), 85.2 s. In addition, in the data set with blood coagulation (aPTT) (100 μM), the “Potency score in aPTT test” value was 2. Also, the PT in [2] (10 nM) is 11.5 s; in data set [2] (1 μM), 11.2 s; in data set [2] (100 μM), 17.4 s. The “Potency score in PT test” value in [2] (100 μM) was determined as 2. For the same compound, the “inhibition of cell proliferation” value with CNS-1 glioma cells [3] (48 hours, 10 μM, p<0.05) is “Significant inhibition”; in the data set on CNS-1 glioma cells [3] (XTT, 48 hours, 10 nM) it was “significant inhibition”. Besides, the “inhibition of cell proliferation, in combination with PAR-1 antagonist” value in the data set with CNS-1 glioma cells [3] (XTT, PAR-1 antagonist 1 μM, compared to untreated cells and to PAR-1 antagonist alone) is “greater inhibition on cell proliferation”. Further, the “inhibition of cell proliferation, applied alone” value in the data set on CNS-1 glioma cells [3] (XTT, compared to untreated cells and to PAR-1 antagonist alone) was “greater inhibition on cell proliferation”.
For “N alpha-tosyl-L-lysine chloromethyl ketone [TLCK]”, the conduction velocity is 40.55±6.7 m/sec in data set [5] (daily treatment for 2 weeks, TLCK 4.4 mg/kg, NAPAP 120 μM/kg, untreated EAN 23.6±1.2) and 41.95±3.9 m/sec in data set [6] (STZ rats, daily treatment for 2 weeks, TLCK 4.4 mg/kg, NAPAP 120 μM/kg, untreated STZ 28.5±2.8). Also, the proximal amplitude in data set [5] (untreated EAN 0.76±0.33, non-significant) is on record as 1.36±0.49 millivolts; in [6] (STZ rats, untreated STZ 0.48±0.13, insignificant), 1.81±0.8 millivolts. Besides, the latency in [5] (untreated EAN 1.43±0.023, control 0.54±0.03) amounted to 1.28 ± 0.18 ms; in data set [6] (STZ rats, untreated STZ 1.93±0.139, control 1.29±0.057), 1.44 ± 0.04 ms. Also, the internal bleeding result in data set [6] (animals treated with thrombin inhibitors) is reported as “caused severe internal bleeding”. Also, the “concentration at which glioma-cell proliferation decreased” value with CNS-1 glioma cells [3] (48 hours) is reported as “higher than 1 μM”. Also, the proliferation-inhibition result is “No significant proliferation-inhibition” in the data set on CNS-1 glioma cells [3] (48 hours, 1 μM to 125 nM) and “significant proliferation-inhibition” with CNS-1 glioma cells [3] (48 hours, 8-33 μM). In the data set on CNS-1 glioma cells [3] (48 hours, 6.7 mM and 14 mM), the “proliferation / cell death” value is “caused cell death”. In the data set on CNS-1 glioma cells [3] (XTT, 1 μM), the “proliferation, administered alone” value is recorded as “did not inhibit proliferation”. The “proliferation-inhibition, combined treatment with the PAR-1 antagonist” value with CNS-1 glioma cells [3] (compared with PAR-1 antagonist (1 μM) alone) is “significantly increased said inhibitory effect”.

The record behind these values is patent publication US10028999B2, “PAR-1 based therapeutic conjugates and uses thereof” (TEL HASHOMER MEDICAL RESEARCH INFRASTRUCTURE AND SERVICES …, priority 2014, dated 2018).
